Test results reported in patent US10772858B2, “Benzhydrol derivatives for the management of conditions related to hypoxia inducible factors” (GEORGIA STATE UNIVERSITY RESEARCH FOUNDATION, priority 2015, dated 2020).
pIC50: −log10 of the molar value.

Tested on: LN229HRE-luc/lacZ cells (VEGF HRE, HIF-1 target)
Experiment: Inhibition of hypoxia-inducible gene expression driven by HRE-reporter construct (firefly luciferase) in glioma cells
Format: cell-based
Details: Homo sapiens, Glioma cell; firefly luciferase activity in LN229HRE-luc/LacZ cells, 1 hour pretreatment under normoxia, then hypoxia (1% O2); from dose-response curves
Experimental: Inhibition of Hypoxia-Inducible Gene Expression Driven by Exogenous HRE-Reporter Constructs in Glioma Cells
LN229HRE-luc/lacZ cells were generated by stably transfecting human LN229 glioma cells with a bidirectional reporter construct (pBIGL-V6R) in which the firefly luciferase and LacZ reporter genes are under the control of 6 head to tail tandem copies of the VEGF HRE (hypoxia-responsive element—endogenous HIF-1 target gene) in rightward orientation (clone LN229V6R#18; Hygro selection […]) as reported in Yin et al. Clinical Cancer Research, 2012, 1-11.
Cells were pretreated with different doses of test compounds or 1% DMSO (final concentration in media) vehicle control for 1 hour under normoxia (21% O2); then incubation continued under normoxia or hypoxia (1% O2) using a hypoxia incubator (Thermo Forma model 3130). Firefly luciferase activities in lysates of LN229HRE-luc/LacZ cells were measured with a Dual-Luciferase Reporter Assay System (Promega) in a 20/20 n Luminometer (Promega). The IC50 (μM) value for each individual compound was established from the dose-response curves.

pIC50 | SMILES
6.52 | COc1ccc(C(O)c2ccc(CO[C@H]3CCOC3)cc2)cc1OC (stereo partly drawn) [3a, (3,4-Dimethoxyphenyl)(4-((((S)-tetrahydrofuran-3-yl)oxy)methyl)phenyl)methanol]
5.47 | COc1ccc(C(O)c2ccc(CO[C@@H]3CCOC3)cc2)cc1OC (some centres unmarked) [3b]
5.47 | COc1ccc(C(O)c2ccc(COC3CCOC3)cc2)cc1OC (centres unmarked) [3c]
< 5.30 | COc1ccc(C(O)c2ccc(CO[C@H]3CCOC3)cn2)cc1OC (some centres unmarked) [3d]
< 5.30 | COc1ccc(C(O)c2ccc(COc3cccnc3)cn2)cc1OC (centres unmarked) [3e]
< 5.30 | COc1ccc([C@H](O)c2ccc(COC3CCOC3)cc2)cc1OC (some centres unmarked) [3f]
6.40 | COc1ccc(C(O)c2ccc(COC3CCCCC3)cc2)cc1OC (centres unmarked) [3g]
6.17 | COc1ccc(C(O)c2ccc(COC3CCCCC3)cc2)c(OC)c1 (centres unmarked) [3h]
6.20 | CCCCOCc1ccc(C(O)c2ccc(OC)cc2OC)cc1 (centres unmarked) [3j]
< 5.30 | CCOCc1ccc(C(O)c2ccc(OC)c(OC)c2)cc1 (centres unmarked) [3k]
< 5.30 | CCOCc1ccc(C(O)c2ccc(OC)cc2)cc1 (centres unmarked) [3l]
6.52 | CCCOCc1ccc(C(O)c2ccc(OC)c(OC)c2)cc1 (centres unmarked) [3m]
< 5.30 | COc1ccc(C(O)c2ccc(COC(C)C)cc2)cc1OC (centres unmarked) [3n]
6.05 | COc1ccc(C(O)c2ccc(COC3CCN(C(=O)OC(C)(C)C)CC3)cc2)cc1OC (centres unmarked) [3o]
< 5.30 | CCCOCc1ccc(C(O)c2ccc(OC)c(OCc3ccccc3)c2)cc1 (centres unmarked) [3p]
< 5.30 | CCCCOCc1ccc(C(O)c2cccc(OCc3ccccc3)c2)cc1 (centres unmarked) [3q]
< 5.30 | CCCOCc1ccc(C(O)c2ccc(OCOC)cc2)cc1 (centres unmarked) [3r]
< 5.30 | COc1ccc(C(O)c2ccc(COC3CN(C(=O)OC(C)(C)C)C3)cc2)cc1OC (centres unmarked) [3s]
< 5.30 | COc1ccc(C(O)c2ccc(CO[C@@H]3CCN(C(=O)OC(C)(C)C)C3)cc2)cc1OC (some centres unmarked) [3t]
< 5.30 | CCCOCc1ccc(C(O)c2ccc(OC)c(OCOC)c2)cc1 (centres unmarked) [3u]
5.30 | CCCOCc1ccc(C(O)c2ccc(OC)c(OCCC)c2)cc1 (centres unmarked) [3v]
< 5.30 | CCCOCc1ccc(C(O)c2ccc(OCc3ccccc3)c(OCC)c2)cc1 (centres unmarked) [3w]

pIC50 | SMILES
6.00 | COc1ccc(C(O)c2cccc(COc3ccccc3)c2)cc1OC (centres unmarked) [6a]
6.70 | COc1ccc(C(O)c2cccc(COC3CCN(C(=O)OC(C)(C)C)CC3)c2)cc1OC (centres unmarked) [6b, Tert-butyl 4-((3-((3,4-dimethoxyphenyl)(hydroxy)methyl)benzyl)oxy)piperidine-1-carboxylate]
6.26 | COc1ccc(C(O)c2cccc(COC3CCN(C(=O)OC(C)(C)C)CC3)c2)c(OC)c1 (centres unmarked) [6c]
< 5.30 | OC(c1ccccc1)c1cccc(COc2cccc3ccccc23)c1 (centres unmarked) [6d]
5.74 | COc1ccc(C(O)c2cccc(COc3cccc4ccccc34)c2)cc1OC (centres unmarked) [6e]
< 5.30 | CCOCc1cccc(C(O)c2ccc(OC)cc2)c1 (centres unmarked) [6f]
< 5.30 | CCCCOCc1cccc(C(O)c2ccc(OC)cc2)c1 (centres unmarked) [6g]
6.32 | CCCCOCc1cccc(C(O)c2ccc(OC)cc2OC)c1 (centres unmarked) [6h]
5.30 | CCCOCc1cccc(C(O)c2ccc(OC)cc2OC)c1 (centres unmarked) [6i]
5.61 | CCCCOCc1cccc(C(O)c2ccc(OC)c(OC)c2)c1 (centres unmarked) [6j]
5.42 | CCCCOc1cccc(C(O)c2cccc(COCCC)c2)c1 (centres unmarked) [6k]
5.53 | CCCCOCc1cccc(C(O)c2ccc(OC)c(OCc3ccccc3)c2)c1 (centres unmarked) [6l]
< 5.30 | CCCCOCc1cccc(C(O)c2cccc(OCc3ccccc3)c2)c1 (centres unmarked) [6m]
6.12 | CCCCOCc1cccc(C(O)c2ccc(OC)c(OCOC)c2)c1 (centres unmarked) [6n]
6.00 | CCCCOCc1cccc(C(O)c2ccc(OC)c(OCCCC)c2)c1 (centres unmarked) [6o]
6.21 | CCCCOCc1cccc(C(O)c2ccc(OCc3ccccc3)c(OCC)c2)c1 (centres unmarked) [6p]
< 5.30 | CCCOCc1ccccc1C(O)c1ccc(OC)c(OC)c1 (centres unmarked) [9a]
< 5.30 | CCCCOCc1ccccc1C(O)c1ccc(OC)c(OCc2ccccc2)c1 (centres unmarked) [9b]
< 5.30 | CCCCOCc1cccc(C(O)c2cccc(OCOC)c2)c1 (centres unmarked) [9c]
< 5.30 | CCCCOCc1cccc(C(O)c2cccc(OCCCC)c2)c1 (centres unmarked) [9d]
< 5.30 | C=CCOc1ccc(C(O)c2ccc(OC)c(OC)c2)cc1 (centres unmarked) [14a]
5.72 | CCCCCOc1ccc(C(O)c2ccc(OC)c(OC)c2)cc1 (centres unmarked) [14b]

pIC50 | SMILES
6.48 | COc1ccc(C(O)c2ccc(OCCC3CCN(C(=O)OC(C)(C)C)CC3)cc2)cc1OC (centres unmarked) [14c]
< 5.30 | COc1ccc(C(O)c2ccc(OCc3cnco3)cn2)cc1OC (centres unmarked) [14d]
< 5.30 | CCCCOc1ccc(C(O)c2ccc(OC)c(OC)c2)nc1 (centres unmarked) [15a]
< 5.30 | CCCCOc1ccc(C(O)c2ccc(OC)cc2OC)nc1 (centres unmarked) [15b]
< 5.30 | COc1ccc(C(O)c2ccc(OC(C)C)cn2)cc1OC (centres unmarked) [15c]
< 5.30 | COc1ccc(C(O)c2ccc(OC(C)C)cn2)c(OC)c1 (centres unmarked) [15d]
< 5.30 | COc1ccc(C(O)c2ccc(CN3CCOCC3)cn2)cc1OC (centres unmarked) [21a]
5.83 | COc1ccc(C(O)c2ccc(CN3CCN(C(=O)OC(C)(C)C)CC3)cc2)cc1OC (centres unmarked) [21b]
6.00 | COc1ccc(C(O)c2ccc(CBr)cc2)cc1OC (centres unmarked) [21c]
5.66 | COc1ccc(C(O)c2ccccc2)cc1OC (centres unmarked) [24a]
< 5.30 | COc1ccc(C(O)c2ccc(OC)c(OC)c2)cc1OC [24b]
< 5.30 | COc1ccc(OC)c(C(O)c2ccc(OC)c(OC)c2)c1 (centres unmarked) [24c]
< 5.30 | COc1ccc(C(O)c2ccc(N3CCN(C)CC3)cc2)cc1OC (centres unmarked) [24d]
5.30 | COc1ccc(C(O)c2ccc(C3CCCO3)cc2)cc1OC (centres unmarked) [24e]
< 5.30 | COc1ccc(C(O)c2ccc(-c3ccccc3)cc2)cc1OC (centres unmarked) [24f]
6.22 | COc1ccc(C(O)c2ccc3c(c2)C=CC(C)(C)O3)cc1OC (centres unmarked) [26a]
< 5.30 | COc1cccc(C(O)c2ccc3c(c2)C=CC(C)(C)O3)c1 (centres unmarked) [26b]
5.51 | COc1ccc(C(O)c2cc3c(c(OC)c2)OC(C)(C)C=C3)cc1OC (centres unmarked) [26c]
5.65 | COc1ccc(C(O)c2ccc3c(n2)C=CC(C)(C)O3)cc1OC (centres unmarked) [26d]
5.38 | COc1ccc(C(O)c2cc3c(c(OC)c2)OC(C)(C)CC3)cc1OC (centres unmarked) [27c]
5.64 | COc1ccc(C(O)c2ccc3c(n2)CCC(C)(C)O3)cc1OC (centres unmarked) [27d]
< 5.30 | COc1ccc(C(O)c2ccc3c(c2)CCO3)cc1OC (centres unmarked) [29a]

pIC50 | SMILES
< 5.30 | COc1ccc(C(O)c2ccc3c(c2)OCCN3C)cc1OC (centres unmarked) [29b]
5.92 | COc1ccc(C(O)c2ccc3ccccc3c2)cc1OC (centres unmarked) [29c]
5.38 | COc1ccc(C(O)c2ccc3c(c2)OCCO3)cc1OC (centres unmarked) [29d]
5.99 | COc1ccc(C(O)c2ccc3sc(C)cc3c2)cc1OC (centres unmarked) [29e]
< 5.30 | COc1ccc(C(O)c2ccc3sc(C)cc3c2)c(OC)c1 (centres unmarked) [29f]
5.74 | CCCCCCOc1ccc2cc(C(O)c3ccc(OC)c(OC)c3)ccc2c1 (centres unmarked) [32a]
5.53 | CCCOc1ccc2cc(C(O)c3ccc(OC)c(OC)c3)ccc2c1 (centres unmarked) [32b]
5.48 | CCCCOc1ccc2cc(C(O)c3ccc(OC)c(OC)c3)ccc2c1 (centres unmarked) [32c]
5.58 | COc1ccc(C(O)c2ccc3cc(OC(C)C)ccc3c2)cc1OC (centres unmarked) [32d]
5.38 | COc1ccc(C(O)c2ccc(OC3CCOC3)cc2OC)cc1OC (centres unmarked) [35a]
5.89 | CCCCCOc1ccc(C(O)c2ccc(OC)c(OC)c2)c(F)c1 (centres unmarked) [35b]
6.37 | CCCCCOc1ccc(C(O)c2ccc(OC)c(OC)c2)c(C)c1 (centres unmarked) [35c]
6.48 | COc1ccc(C(O)c2ccc(OCC3CCN(C(=O)OC(C)(C)C)CC3)cc2C)cc1OC (centres unmarked) [35d]
6.57 | COc1ccc(C(O)c2ccc(OCCC3CCN(C(=O)OC(C)(C)C)CC3)cc2C)cc1OC (centres unmarked) [35e, Tert-butyl 4-(2-(4-((3,4-dimethoxyphenyl)(hydroxy)methyl)-3-methylphenoxy)ethyl)piperidine-1-carboxylate]
6.57 | COc1cc(C(O)c2ccc(OCC3CCN(C(=O)OC(C)(C)C)CC3)cc2C)cc(OC)c1OC (centres unmarked) [35f]
6.57 | COc1cc(C(O)c2ccc(OCCC3CCN(C(=O)OC(C)(C)C)CC3)cc2C)cc(OC)c1OC (centres unmarked) [35g, Tert-butyl 4-(2-(4-(hydroxy(3,4,5-trimethoxyphenyl)methyl)-3-methylphenoxy)ethyl)piperidine-1-carboxylate]
< 5.30 | COc1ccc(C(=O)c2ccc(C[C@H]3CCOC3)cc2)cc1OC [36c]
< 5.30 | COc1ccc(C(=O)c2ccc(N3CCOCC3)cc2)cc1OC [36d]
< 5.30 | COc1ccc(C(=O)c2ccc3c(c2)C=CC(C)(C)O3)cc1OC [36e]
< 5.30 | COc1ccc(C(=O)c2cccc(COC3CCN(C(=O)OC(C)(C)C)CC3)c2)cc1OC [36f]
5.35 | COc1ccc(C(=O)c2ccc(COC3CCN(C(=O)OC(C)(C)C)CC3)cc2)cc1OC [36g]
< 5.30 | COc1ccc(C(=O)c2ccc3c(n2)C=CC(C)(C)O3)cc1OC [36h]

SMILES | pIC50
CCCCOCc1ccc(C(O)c2ccc(OC)c(OC)c2)cc1 (centres unmarked) [3i, (4-(Butoxymethyl)phenyl)(3,4-dimethoxyphenyl)methanol] | 6.30
